Measured values as given in patent US8178486B2, “Method for promoting hair growth” (Animal Technology Institute Taiwan, priority 2005, dated 2012).

Test system: hair follicles
Assay: Hair growth in 4-month old female mice, topical application to shaved dorsal skin
Assay type: in vivo
Procedure: The marked areas of the mice were applied by spreading topically on the exposed skin areas 60 μl of aqueous solutions of bovine lactoferrin (200 mg/ml), 60 μl of control vehicle (water), and 60 μl of bovine lactoferricin, obtained as set forth in Example 3, (200 mg/ml) twice daily. Observation for hair growth in the marked areas is made daily after the first treatment. […] The hair growth-promoting effect of lactoferrin or lactoferricin was consistently observed in all tested mice. Although lactoferricin was prepared by the method described in Example 3 above, the present invention should not be limited to use only lactoferricin prepared in such manner. Lactoferricin prepared by other methods would still fall within the scope of the present invention.

**Q.** How did the “amount of hair growth compared with area treated with lactoferrin of the same amount” value (200 mg/ml topically twice daily, 10 days) turn out when lactoferricin was run?
**A.** greater amount of hair growth

**Q.** And the “hair growth observed in the treated skin area” value (60 μl of 200 mg/ml topically twice daily, after 10 days, not seen with control vehicle)?
**A.** prominent hair growth
